Test results as given in patent US7851637B2, “Compounds and methods for inhibiting the interaction of BCL proteins with binding partners” (Infinity Pharmaceuticals, Inc., priority 2004, dated 2010).

Assays:
[1] = biological target: Bcl-2 (Homo sapiens, UniProt P10415); assay: Bcl-2 binding affinity analysis (fluorescence polarization binding assay)
Summary of the method: (§1)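 FP readout; quantitative in vitro binding format; same method applied to both anti-apoptotic proteins.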

[2] = biological target: Bcl-xL (Homo sapiens, UniProt Q07817); assay: Bcl-xL binding affinity analysis (fluorescence polarization binding assay); set-up: scale not given here
Chain of Bcl-xL (Q07817 whole entry): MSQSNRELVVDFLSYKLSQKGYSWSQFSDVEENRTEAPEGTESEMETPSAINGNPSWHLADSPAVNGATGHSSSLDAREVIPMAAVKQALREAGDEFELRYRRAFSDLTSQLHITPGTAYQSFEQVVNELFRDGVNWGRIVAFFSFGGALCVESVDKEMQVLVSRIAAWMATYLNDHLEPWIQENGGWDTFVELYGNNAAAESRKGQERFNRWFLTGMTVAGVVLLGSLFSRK
Summary of the method: as §1

[3] = system: RL Human Follicular Lymphoma Cell Line; assay: Alamar blue cytotoxicity assay in RL cells; type: cell-based; settings: Homo sapiens, 72 h incubation, read-out: Bcl RL Alamar Blue IC50
Procedure: When RL-cells are exposed to isoxazolidine compounds of the present invention, the inhibitors show a dose-dependent cell-killing in the Alamar blue cytoxicity assay with IC50 values of from about 100 μM to about 1 μM (See Examples). When Panc1 cells are exposed to the isoxazolidine compounds of the present invention in combination with camptothecin, the inhibitors show a synergistic dose-dependent cell killing in the propidium iodide exclusion cell survival assay with IC50 values of from about 100 μM to about 1 μM (See Examples).
• 1) Using 96 well plates, compounds were serially diluted in DMSO from 9 mM to 4 uM • 2) Assay plates were prepared by diluting samples 310 fold into 150 ul of medium containing 30,000 cells/well resulting in a final DMSO concentration of 0.3% and a concentration range from 29 uM to 0.013 uM for each compound. • 3) Plates were incubated at 37 C and 5% CO2 for 72 h • 4) After 72 h, Alamar blue reagent was added to each well and plates read according to manufacturer's instructions
In vitro cytotoxicity data for RL cells is presented below for various compounds of the invention.

Chain of Bcl-2 (P10415 whole entry): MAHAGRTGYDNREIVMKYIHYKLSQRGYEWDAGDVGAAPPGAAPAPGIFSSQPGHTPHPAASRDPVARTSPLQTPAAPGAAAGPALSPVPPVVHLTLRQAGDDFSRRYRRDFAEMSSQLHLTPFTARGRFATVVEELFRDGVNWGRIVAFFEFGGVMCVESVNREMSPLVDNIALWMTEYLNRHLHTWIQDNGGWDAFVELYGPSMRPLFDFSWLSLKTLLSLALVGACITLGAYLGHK

Compound	Ki [1] [µM]	Bcl-XL binding affinity Ki [2]	IC50 [3] [µM]
C[C@@H]1[C@@H](NC(=O)[C@@H]2C([C@H](C)O)[C@H](CO)ON2Cc2cccc(CN(CCN(C)C)Cc3cccc(F)c3F)c2)C[C@H]2C[C@@H]1C2(C)C (stereo partly drawn) [Compound 362]	< 0.8	♯	2 to 5
C[C@@H]1[C@@H](NC(=O)[C@@H]2C([C@H](C)O)[C@H](CO)ON2Cc2cccc(CN(CCN(C)C)Cc3ccccc3OC(F)(F)F)c2)C[C@H]2C[C@@H]1C2(C)C (stereo partly drawn) [Compound 365]	< 0.8	♯	< 2
CC(O)C1C(CO)ON(Cc2cccc(CN(CCN(C)C)Cc3cccc(OC(F)(F)F)c3)c2)C1C(=O)NC1CC2CC(C1C)C2(C)C (stereo not drawn) [Compound 367]	< 0.8	♯	2 to 5
CC(O)C1C(CO)ON(Cc2cccc(CN(CCN(C)C)Cc3cccc4ccccc34)c2)C1C(=O)NC1CC2CC(C1C)C2(C)C (stereo not drawn) [Compound 368]	< 0.8	♯	2 to 5
CC(O)C1C(CO)ON(Cc2cccc(CN(CCN(C)C)Cc3ccccc3C#N)c2)C1C(=O)NC1CC2CC(C1C)C2(C)C (stereo not drawn) [Compound 369]	< 0.8	♯	2 to 5
CC(O)C1C(CO)ON(Cc2cccc(CN(CCN(C)C)Cc3ccc(C(F)(F)F)cc3)c2)C1C(=O)NC1CC2CC(C1C)C2(C)C (stereo not drawn) [Compound 371]	< 0.8	♯	2 to 5
CC(O)C1C(CO)ON(Cc2cccc(CN(CCN(C)C)Cc3c(Cl)cccc3Cl)c2)C1C(=O)NC1CC2CC(C1C)C2(C)C (stereo not drawn) [Compound 373]	< 0.8	♯	2 to 5
CC(O)C1C(CO)ON(Cc2cccc(CN(CCN(C)C)Cc3cccc(Oc4ccccc4)c3)c2)C1C(=O)NC1CC2CC(C1C)C2(C)C (stereo not drawn) [Compound 374]	< 0.8	♯	2 to 5
CC(O)C1C(CO)ON(Cc2cccc(CN(CCN(C)C)Cc3cccc(O)c3)c2)C1C(=O)NC1CC2CC(C1C)C2(C)C (stereo not drawn) [Compound 378]	< 0.8	♯	2 to 5
CC(C)CN(CCN(C)C)Cc1cccc(CN2OC(CO)C(C(C)O)C2C(=O)NC2CC3CC(C2C)C3(C)C)c1 (stereo not drawn) [Compound 379]	< 0.8	♯	> 5
CCOc1cccc(CN(CCN(C)C)Cc2cccc(CN3OC(CO)C(C(C)O)C3C(=O)NC3CC4CC(C3C)C4(C)C)c2)c1 (stereo not drawn) [Compound 383]	< 0.8	♯	2 to 5
CC(O)C1C(CO)ON(Cc2cccc(CN(CCN(C)C)Cc3cc4ccccc4o3)c2)C1C(=O)NC1CC2CC(C1C)C2(C)C (stereo not drawn) [Compound 384]	< 0.8	♯	2 to 5
Cc1ccc(CN(CCN(C)C)Cc2cccc(CN3OC(CO)C(C(C)O)C3C(=O)NC3CC4CC(C3C)C4(C)C)c2)cc1 (stereo not drawn) [Compound 386]	< 0.8	♯	2 to 5
CC(O)C1C(CO)ON(Cc2cccc(CN(CCN(C)C)Cc3cccc(C(F)(F)F)c3)c2)C1C(=O)NC1CC2CC(C1C)C2(C)C (stereo not drawn) [Compound 398]	< 0.8	♯	> 5
CC(O)C1C(CO)ON(Cc2cccc(CN(CCN(C)C)Cc3ccc(-c4ccccc4)cc3)c2)C1C(=O)NC1CC2CC(C1C)C2(C)C (stereo not drawn) [Compound 400]	< 0.8	♯	< 2
COc1cc(CN(CCN(C)C)Cc2cccc(CN3OC(CO)C(C(C)O)C3C(=O)NC3CC4CC(C3C)C4(C)C)c2)cc(OC)c1 (stereo not drawn) [Compound 404]	< 0.8	♯	2 to 5
CC(=O)Oc1cccc(CN(CCN(C)C)Cc2cccc(CN3OC(CO)C(C(C)O)C3C(=O)NC3CC4CC(C3C)C4(C)C)c2)c1 (stereo not drawn) [Compound 405]	< 0.8	♯	2 to 5
C[C@@H]1[C@@H](NC(=O)[C@@H]2C([C@H](C)O)[C@H](CO)ON2Cc2cccc(CN(Cc3ccccc3)[C@@H](CCc3ccccc3)CN(C)C)c2)C[C@H]2C[C@@H]1C2(C)C (stereo partly drawn) [Compound 420]	< 0.8	♯	< 2
CC(O)C1C(CO)ON(Cc2cccc(CN(Cc3ccccc3)C3CCN(C)C3)c2)C1C(=O)NC1CC2CC(C1C)C2(C)C (stereo not drawn) [Compound 429]	< 0.8	♯	2 to 5

Compound	Ki [1] [µM]	Bcl-XL binding affinity Ki [2]	IC50 [3] [µM]
C[C@@H]1[C@@H](NC(=O)[C@@H]2C([C@H](C)O)[C@H](CO)ON2Cc2cccc(CN(Cc3ccccc3)[C@@H]3CCN(C)C3)c2)C[C@H]2C[C@@H]1C2(C)C (stereo partly drawn) [Compound 432]	< 0.8	♯	< 2
CC(O)C1C(CO)ON(Cc2cccc(CN(Cc3ccccc3)C(CC3CCCCC3)CN(C)C)c2)C1C(=O)NC1CC2CC(C1C)C2(C)C (stereo not drawn) [Compound 437]	< 0.8	♯	> 5
CC(O)C1C(CO)ON(Cc2cccc(CN3CCN(C)CC3)c2)C1C(=O)NC1CC2CC(C1C)C2(C)C (stereo not drawn) [Compound 447]	< 0.8	♯	> 5
C[C@@H]1[C@@H](NC(=O)[C@@H]2C([C@H](C)O)[C@H](CO)ON2Cc2cccc(CN3[C@@H](CN(C)C)CC[C@H]3c3ccccc3)c2)C[C@H]2C[C@@H]1C2(C)C (stereo partly drawn) [Compound 448]	< 0.8	♯	2 to 5
CC(O)C1C(CO)ON(Cc2cccc(CN3CCN(C)C(c4ccccc4)C3)c2)C1C(=O)NC1CC2CC(C1C)C2(C)C (stereo not drawn) [Compound 456]	< 0.8	♯	> 5
CC(O)C1C(CO)ON(Cc2cccc(CN3c4ccccc4CC3CN(C)C)c2)C1C(=O)NC1CC2CC(C1C)C2(C)C (stereo not drawn) [Compound 465]	< 0.8	♯	> 5
CC(O)C1C(CO)ON(Cc2cccc(CN3C(CN(C)C)CC4CCCCC43)c2)C1C(=O)NC1CC2CC(C1C)C2(C)C (stereo not drawn) [Compound 466]	< 0.8	♯	> 5
CC(O)C1C(CO)ON(Cc2cccc(CN3CCN(C)CC3c3ccccc3)c2)C1C(=O)NC1CC2CC(C1C)C2(C)C (stereo not drawn) [Compound 473]	< 0.8	♯	> 5
CC(O)C1C(CO)ON(Cc2cccc(CNCC3CCCN3C(=O)OCc3ccccc3)c2)C1C(=O)NC1CC2CC(C1C)C2(C)C (stereo not drawn) [Compound 474]	< 0.8	♯	2 to 5
COc1c(CN2O[C@@H](CO)[C@@H]([C@H](C)O)[C@H]2C(=O)N[C@H]2C[C@H]3C[C@@H]([C@@H]2C)C3(C)C)cccc1-c1cccc(C(=O)N[C@@H](Cc2ccccc2)CN(C)C)c1 [Compound 477]	< 0.8	♯	< 2
COc1c(CN2O[C@@H](CO)[C@@H]([C@H](C)O)[C@H]2C(=O)N[C@H]2C[C@H]3C[C@@H]([C@@H]2C)C3(C)C)cccc1-c1cccc(C(=O)N[C@@H](CCc2ccccc2)CN(C)C)c1 [Compound 481]	< 0.8	♯	2 to 5
COc1c(CN2O[C@@H](CO)[C@@H]([C@H](C)O)[C@H]2C(=O)N[C@H]2C[C@H]3C[C@@H]([C@@H]2C)C3(C)C)cccc1-c1cccc(C(=O)N[C@H](CCc2ccccc2)CN(C)C)c1 [Compound 482]	< 0.8	♯	< 2
COc1c(CN2O[C@@H](CO)[C@@H]([C@H](C)O)[C@H]2C(=O)N[C@H]2C[C@H]3C[C@@H]([C@@H]2C)C3(C)C)cccc1-c1cccc(C(=O)N[C@H](CN(C)C)c2ccccc2)c1 [Compound 491]	< 0.8	♯	2 to 5
CC(C)C(CN(C)C)NC(=O)c1cccc(CN2OC(CO)C(C(C)O)C2C(=O)NC2CC3CC(C2C)C3(C)C)c1 (stereo not drawn) [Compound 502]	< 0.8	♯	> 5
CC(O)C1C(CO)ON(Cc2cccc(C(=O)NC(Cc3ccccc3)CN(C)C)c2)C1C(=O)NC1CC2CC(C1C)C2(C)C (stereo not drawn) [Compound 507]	< 0.8	♯	> 5
CC(C)C[C@H](CN(C)C)NC(=O)Nc1cccc(CN2O[C@@H](CO)[C@@H]([C@H](C)O)[C@H]2C(=O)NC2C[C@H]3C[C@@H]([C@@H]2C)C3(C)C)c1 (stereo partly drawn) [Compound 562]	< 0.8	♯	> 5
C[C@@H]1[C@@H](NC(=O)[C@@H]2[C@H]([C@H](C)O)[C@H](CO)ON2Cc2cccc(NC(=O)N[C@@H](Cc3ccccc3)CN(C)C)c2)C[C@H]2C[C@@H]1C2(C)C [Compound 570]	< 0.8	♯	> 5
C[C@@H]1[C@@H](NC(=O)[C@@H]2[C@H]([C@H](C)O)[C@H](CO)ON2Cc2cccc(NC(=O)N[C@H](Cc3ccccc3)CN(C)C)c2)C[C@H]2C[C@@H]1C2(C)C [Compound 571]	< 0.8	♯	> 5
CC(O)C1C(CO)ON(Cc2cccc(NC(=O)NC(CCc3ccccc3)CN(C)C)c2)C1C(=O)NC1CC2CC(C1C)C2(C)C (stereo not drawn) [Compound 572]	< 0.8	♯	2 to 5
